Reference: US20110312934A1, “2-ALKYL-6-CYCLOAMINO-3-(PYRIDIN-4-YL)IMIDAZO[1,2-B]-PYRIDAZINE DERIVATIVES, PREPARATION THEREOF, AND THERAPEUTIC APPLICATION THEREOF” (SANOFI-AVENTIS, priority 2008, published 2011)

Columns and labels:
[1] = system: Mper1-luc Rat-1 (P2C4) fibroblasts; assay: Circadian cell assay (mPer1 luciferase reporter, period prolongation); format: cell-based; details: effective concentration that induced a 1-hour prolongation of the circadian period, interpolated from hyperbolic curve
Procedure: Mper1-luc Rat-1 (P2C4) fibroblast cultures were prepared by dividing the cultures every 3-4 days (approximately 10-20% of confluence) on 150 cm^2 degassed polystyrene tissue culture flasks (Falcon® #35-5001) and maintained in growth medium [EMEM (Cellgro #10-0,0-CV); 10% foetal bovine serum (FBS; Gibco #16000-044); and 50 I.U./ml of penicillin-streptomycin (Cellgro #30-001-CI)] at 37° C. and under 5% CO2.
Cells obtained from Rat-1 fibroblast cultures at 30-50% of confluence as described above were co-transfected with vectors containing the selection marker for resistance to zeocin for a stable transfection and a luciferase reporter gene controlled by the mPer-1 promoter. After 24 to 48 hours, the cultures were divided on 96-well plates and maintained in growth medium supplemented with 50-100 μg/ml of zeocin (Invitrogen® #45-0430) for 10-14 days. The zeocin-resistant stable transfectants were evaluated for the expression of the reporter by adding 100 μM luciferin (Promega® #E1603®) to the growth medium and by assaying the luciferase activity on a TopCount® scintillation counter (Packard Model #C384V00). The Rat-1 cell clones expressing both zeocin resistance and lucerifase activity controlled by mPer1 were serum-shock synchronized with 50% horse serum [HS (Gibco® #16050-122)] and the activity of the circadian reporter was evaluated. The P2C4 clone of Mper1-luc Rat-1 fibroblasts was selected to test the compound.
Mper1-luc Rat-1 (P2C4) fibroblasts at 40-50% of confluence, obtained according to the protocol described above, were plated out onto 96-well opaque tissue culture plates (Perkin Elmer® #6005680). The cultures are maintained in growth medium supplemented with 100 μg/ml of zeocin (Invitrogen #45-0430) until they reach 100% of confluence (48-72 h). The cultures were then synchronized with 100 μl of synchronization medium [EMEM (Cellgro #10-0,0-CV); 100 I.U./ml of penicillin-streptomycin (Cellgro #30-001-C1); 50% HS (Gibco #16050-122)] for 2 hours at 37° C. and under 5% CO2. After synchronization, the cultures were rinsed with 100 μl of EMEM (Cellgro #10-010-CV) for 10 minutes at ambient temperature. After rinsing, the medium was replaced with 300 μl of CO2 independent medium [CO2I (Gibco #18045-088); 2 mM L-glutamine (Cellgro #25-005-C1); 100 U.I./ml of penicillin-streptomycin (Cellgro #30-001-C1); 100 μM luciferin (Promega #E 1603)]. […]
The two methods produced a virtually identical period estimation on a range of circadian periods. […] The data were analysed by adjusting a hyperbolic curve to the data expressed as change of period (y-axis) as a function of the concentration of the test compound (x-axis) in the XLfit™ software and the CE Delta (t+1 h) was interpolated from this curve.

melting point: 166 to 168 °C
Structure (SMILES): Cc1nc2ccc(N3CCNCC3)nn2c1-c1ccncc1 [Compound 1, 2-Methyl-6-piperazin-1-yl-3-pyridin-4-yl-imidazo[1,2-b]pyridazine]
CE Delta (t + 1 h) [1]: 20 nM
